Measurements taken from patent publication US20070129344A1, “Bicyclic 6-alkylidene-penem beta-lactamase inhibitors and beta-lactam antibiotic combination: a broad spectrum antibiotic” (priority 2005, published 2007).
Structures can show the parent of a compound that is named as a salt. Where two headings read alike, the source gives them in different places.

Key:
[1] = target: class A β-lactamase TEM-1 (Escherichia coli, UniProt P62593); assay: β-Lactamase inhibition IC50 (nitrocefin, spectrophotometric); type: biochemical, E. coli; settings: enzyme 4.3 nM, 10 min preincubation at 25° C.
Chain of class A β-lactamase TEM-1 (P62593 24-286 limits assumed): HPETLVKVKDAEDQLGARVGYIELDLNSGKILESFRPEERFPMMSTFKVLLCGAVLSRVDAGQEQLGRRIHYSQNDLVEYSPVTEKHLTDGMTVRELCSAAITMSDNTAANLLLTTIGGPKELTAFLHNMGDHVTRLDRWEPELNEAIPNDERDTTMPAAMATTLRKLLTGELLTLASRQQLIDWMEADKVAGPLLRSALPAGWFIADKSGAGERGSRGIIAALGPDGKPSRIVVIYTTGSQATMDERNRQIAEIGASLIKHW
Description: β-Lactamase inhibitory activity of the penem inhibitors was determined spectrophotometrically as described by Bush et al., [Bush, K., Macalintal, C., Rasmussen, B. A., Lee, V. and Yang, Y. Antimicrobial Agents and Chemotherapy 1993, 37, 851]. Homogeneously purified class A β-lactamases TEM-1 from E. coli and Imi-1 from Enterobacter cloacae, class B enzyme CcrA from Bacteroides fragilis and class C enzyme AmpC from Enterobacter cloacae were employed in the assay. The enzyme concentrations for TEM-1, Imi-1, CcrA and AmpC were 4.3, 7.1, 1.2 and 2.1 nM, respectively. A wide range of inhibitor concentrations were prepared in 50 mM PO4, pH 7.0 to include the possible IC50 values. The substrate used to initiate the enzyme reaction was nitrocefin at 50 μg/ml in the same buffer as the inhibitor. Initially the enzyme and inhibitor (20 μl each) were preincubated for 10 minutes at 25° C. prior to the addition of 160 μl volume of nitrocefin. Initial rates of hydrolysis were monitored for 5 minutes at 495 nm using a Molecular Devices Spectra Max 250 with kinetic protocol of SoftMax Program. Readings from the Spectra Max 250 were exported and transferred to Microsoft Excel. The percent of inhibition of each inhibitor concentration was calculated based on the control enzyme activity. The inhibitor concentration that caused a 50% reduction in the enzymatic activity (IC50) was determined graphically.

E. coli GC 2009 (TEM-10) = assay: MIC microbroth dilution; β-lactamase class A (ESBL); type: cell-based; settings: E. coli GC 2009; Cefepime + 4 ug/ml Compound 1
Description: (§1) The in vitro activities of the antibiotics were determined by the microbroth dilution method as recommended by the National Committee for Clinical Laboratory Standards (NCCLS). (NCCLS. 2000. Methods for Dilution Antimicrobial Susceptibility Tests for Bacteria That Grow Aerobically; Approved Standards: M7-A5, vol. 19. National Committee for Clinical Laboratory Standards, Villanova, Pa.). Mueller-Hinton II broth (MHBII)(BBL Cockeysville, Md.), was used for the testing procedure. […]. The plates were incubated for 18-22 hours at 35° C. in ambient air.

E. coli GC 2253 (IRT-2) = assay: MIC microbroth dilution; β-lactamase class A (IRT); type: cell-based; settings: Cefepime + 4 ug/ml Compound 1
Description: as §1

E. coli GC 2805 (CcrA) = assay: MIC microbroth dilution; β-lactamase class B; type: cell-based; settings: E. coli GC 2805; Cefepime + 4 ug/ml Compound 1
Description: as §1

[2] = test system: A. baumannii GC 7684 AmpC, AmpC; assay: MIC microbroth dilution; β-lactamase class C; type: cell-based
Description: as §1

[3] = test system: A. baumannii GC 7687 AmpC; assay: MIC microbroth dilution; β-lactamase class C; type: cell-based
Description: as §1

[4] = test system: C. freundii GC 4164 Inducible AmpC; assay: MIC microbroth dilution; β-lactamase class C; type: cell-based
Description: as §1

[5] = test system: E. aerogenes 1697-MP GC 7845 AmpC; assay: MIC microbroth dilution; β-lactamase class C; type: cell-based; settings: E. aerogenes GC 7845
Description: as §1

[6] = test system: E. cloacae GC 1477 (AmpC); assay: MIC microbroth dilution; β-lactamase class C; type: cell-based
Description: as §1

[7] = test system: E. cloacae GC 1712 AmpC-inducible; assay: MIC microbroth dilution; β-lactamase class C; type: cell-based
Description: as §1

[8] = test system: E. cloacae GC 4142 (AmpC); assay: MIC microbroth dilution; β-lactamase class C; type: cell-based
Description: as §1

[9] = test system: E. cloacae PT 1494 Inducible AmpC; assay: MIC microbroth dilution; β-lactamase class C; type: cell-based
Description: as §1

[10] = test system: E. cloacae PT 967 Inducible AmpC; assay: MIC microbroth dilution; β-lactamase class C; type: cell-based
Description: as §1

[11] = test system: K. pneumoniae GC 7820 Act 1; assay: MIC microbroth dilution; β-lactamase class C; type: cell-based
Description: as §1

[12] = test system: K. pneumoniae GC 7821 DHA 1; assay: MIC microbroth dilution; β-lactamase class C; type: cell-based
Description: as §1

[13] = test system: K. pneumoniae GC 7822 Act 1; assay: MIC microbroth dilution; β-lactamase class C; type: cell-based
Description: as §1

[14] = test system: K. pneumoniae GC 7823 Fox 5; assay: MIC microbroth dilution; β-lactamase class C; type: cell-based
Description: as §1

[15] = test system: K. pneumoniae GC 7824 Fox 5; assay: MIC microbroth dilution; β-lactamase class C; type: cell-based
Description: as §1

[16] = test system: P. aeruginosa ATCC 27853 AmpC-inducable; assay: MIC microbroth dilution; β-lactamase class C; type: cell-based
Description: as §1

[17] = test system: P. aeruginosa GC 1764 (AmpC); assay: MIC microbroth dilution; β-lactamase class C; type: cell-based
Description: as §1

[18] = test system: P. aeruginosa GC 3153 Inducible AmpC; assay: MIC microbroth dilution; β-lactamase class C; type: cell-based
Description: as §1

[19] = test system: S. marcescens GC 4145 Inducible AmpC; assay: MIC microbroth dilution; β-lactamase class C; type: cell-based
Description: as §1

[20] = test system: S. marcescens PT 696 Inducible AmpC; assay: MIC microbroth dilution; β-lactamase class C; type: cell-based
Description: as §1

[21] = test system: A. baumannii GC 7692 TEM-1, AmpC; assay: MIC microbroth dilution; β-lactamase class A, C; type: cell-based; settings: A. baumannii GC 7692; Cefepime + 4 ug/ml Compound 1
Description: as §1

[22] = test system: K. pn GC 2391 (pl 5.4; 5.6; 7.6; 8.7 B-lactamases); assay: MIC microbroth dilution; β-lactamase class A, A (ESBL), C; type: cell-based, K. pneumoniae
Description: as §1

[23] = test system: A. baumannii PT 9444 PTZ-R; assay: MIC microbroth dilution; β-lactamase class not determined; type: cell-based; settings: A. baumannii PT 9444; Cefepime + 4 ug/ml Compound 1
Description: as §1

[24] = Enterobacter cloacae, Cefepime + 4 ug/ml Compound 2, read-out: MIC
[25] = Pseudomonas aeruginosa, Cefepime + 4 ug/ml Compound 2, read-out: MIC
[26] = Serratia marcescens, Cefepime + 4 ug/ml Compound 2, read-out: MIC

For `O=C([O-])C1=CS[C@@H]2/C(=C\c3cn4c(n3)CCC4)C(=O)N12.[Na+]` [Compound 1, (5R), (6Z)-6-(6,7-Dihydro-5H-pyrrolo[1,2-a]imidazol-2-ylmethylene)-7-oxo-4-thia-1-aza-bicyclo[3.2.0]hept-2-ene-2-carboxylic Acid, Sodium Salt], the IC50 [1] was 0.4 nM, the MIC (E. coli GC 2009 (TEM-10)) was 0.12 µg/mL and the MIC (E. coli GC 2253 (IRT-2)) was 0.03 µg/mL. For the same compound, the MIC (E. coli GC 2805 (CcrA)) was >16 µg/mL, the MIC ([2]; Cefepime + 4 ug/ml Compound 1) was 8 µg/mL and the MIC ([3]; Cefepime + 4 ug/ml Compound 1) was 16 µg/mL. For the same compound, the MIC ([4]; Cefepime + 4 ug/ml Compound 1) was 0.06 µg/mL, the MIC ([5]; Cefepime + 4 ug/ml Compound 1) was 0.06 µg/mL and the MIC ([6]; Cefepime + 4 ug/ml Compound 1) was 0.25 µg/mL. It also gave an MIC ([7]; Cefepime + 4 ug/ml Compound 1) of 0.12 µg/mL, an MIC ([8]; Cefepime + 4 ug/ml Compound 1) of 0.12 µg/mL and an MIC ([9]; Cefepime + 4 ug/ml Compound 1) of 0.06 µg/mL. For the same compound, the MIC ([10]; Cefepime + 4 ug/ml Compound 1) was 0.06 µg/mL, the MIC ([11]; K. pneumoniae GC 7820, Cefepime + 4 ug/ml Compound 1) was 0.25 µg/mL and the MIC ([12]; K. pneumoniae GC 7821, Cefepime + 4 ug/ml Compound 1) was 0.03 µg/mL. It also gave an MIC ([13]; Cefepime + 4 ug/ml Compound 1) of 0.50 µg/mL, an MIC ([14]; K. pneumoniae GC 7823, Cefepime + 4 ug/ml Compound 1) of 0.12 µg/mL and an MIC ([15]; Cefepime + 4 ug/ml Compound 1) of 0.12 µg/mL. The MIC ([16]; Cefepime + 4 ug/ml Compound 1) was 2 µg/mL, the MIC ([17]; Cefepime + 4 ug/ml Compound 1) was 1 µg/mL and the MIC ([18]; Cefepime + 4 ug/ml Compound 1) was 8 µg/mL. The MIC ([19]; Cefepime + 4 ug/ml Compound 1) was 0.12 µg/mL, the MIC ([20]; Cefepime + 4 ug/ml Compound 1) was 0.06 µg/mL and the MIC [21] was >16 µg/mL. The MIC ([22]; Cefepime + 4 ug/ml Compound 1) was 0.50 µg/mL and the MIC [23] was 16 µg/mL.
Work on `O=C(O)C1=CS[C@@H]2/C(=C\c3cn4c(n3)COCC4)C(=O)N12` [Compound 2, (5R), (6Z)-6-(5,6-Dihydro-8H-imidazo[2.1-c][1,4]oxazin-2-ylmethylene)-7-oxo-4-thia-1-azabicyclo[3.2.0]hept-2-ene-2-carboxylic Acid, Sodium Salt] yielded an IC50 [1] of 0.6 nM, an MIC ([2]; Acinetobacter baumannii, Cefepime + 4 ug/ml Compound 2, read-out: MIC) of 8 µg/mL and an MIC ([3]; Acinetobacter baumannii, GC7687AMPC, Cefepime + 4 ug/ml Compound 2, read-out: MIC) of 16 µg/mL. For the same compound, the MIC ([4]; Citrobacter freundii, Cefepime + 4 ug/ml Compound 2, read-out: MIC) was 0.12 µg/mL, the MIC ([5]; Klebsiella aerogenes, Cefepime + 4 ug/ml Compound 2, read-out: MIC) was 0.03 µg/mL and the MIC [6, 24] was 0.25 µg/mL. The MIC [7, 24] was 0.12 µg/mL, the MIC [8, 24] was 0.12 µg/mL and the MIC [9, 24] was 0.06 µg/mL. The MIC [10, 24] was 0.12 µg/mL, the MIC ([11]; Klebsiella pneumoniae, GC7820ACT1, K. pneumoniae GC 7820, Cefepime + 4 ug/ml Compound 2, read-out: MIC) was 0.25 µg/mL and the MIC ([12]; Klebsiella pneumoniae, GC7821DHA1, K. pneumoniae GC 7821, Cefepime + 4 ug/ml Compound 2, read-out: MIC) was 0.03 µg/mL. For the same compound, the MIC ([13]; Klebsiella pneumoniae, GC7822ACT1, Cefepime + 4 ug/ml Compound 2, read-out: MIC) was 0.5 µg/mL, the MIC ([14]; Klebsiella pneumoniae, GC7823FOX5, K. pneumoniae GC 7823, Cefepime + 4 ug/ml Compound 2, read-out: MIC) was 0.12 µg/mL and the MIC ([15]; Klebsiella pneumoniae, GC7824FOX5, Cefepime + 4 ug/ml Compound 2, read-out: MIC) was 0.25 µg/mL. For the same compound, the MIC ([16]; Pseudomonas aeruginosa, ATCC27853, Cefepime + 4 ug/ml Compound 2, read-out: MIC) was 2 µg/mL, the MIC [17, 25] was 1 µg/mL and the MIC [18, 25] was 8 µg/mL. For the same compound, the MIC [19, 26] was 0.25 µg/mL, the MIC [20, 26] was 0.06 µg/mL and the MIC ([22]; Klebsiella pneumoniae, Cefepime + 4 ug/ml Compound 2, read-out: MIC) was 0.5 µg/mL.
